Experimental data taken from patent US11191811B2, “Osteocalcin as a treatment for frailty associated with aging” (THE TRUSTEES OF COLUMBIA UNIVERSITY IN THE CITY OF NEW YORK, priority 2014, dated 2021).

Key:
[1] = test system: Gprc6a−/− myotubes; assay: cAMP accumulation in myotubes; assay type: cell-based, mouse; details: Ocn 10 ng/ml
Procedure: (§1) FIG. 25. Osteocalcin signaling in myofibers is necessary for muscle function during exercise. (A) Serum total osteocalcin (Ocn) and insulin (Ins) levels measured in mice at rest or after a single bout of exercise (40 min, 30 cm/s running on a treadmill) (n=7 per group). (B) Serum uncarboxylated (uncarb)-Ocn levels measured in mice at rest and 0, 1, 2 and 4 hours after a single bout of exercise (40 min, 30 cm/s running on a treadmill) (n=7 per group). (C) Serum CTX levels in mice at rest and after a single bout of exercise (n=7 per group). (D) Performance during endurance exercise of 3 month-old female Ocn-deficient and WT littermates (n=8-10 per group). (E) Performance during endurance exercise of 3 month-old Ocn f/f and OcnOsb−/− littermates (n=3-5 per group). (F) Performance during endurance exercise of 3 month-old female Gprc6a-deficient and WT littermates (n=8-10 per group). (G) Gprc6a expression in various tissues. (H) Gprc6a expression in EDL and soleus muscles (n=3). (I) In situ hybridization analysis of Gprc6a expression in soleus muscle. (J) Gprc6a expression in WT and Ocn−/− muscles (n=6 per group). […]
(§2) Serum osteocalcin, PINP, CTX, and insulin levels were measured using ELISA assays. Blood glucose level was measured using an Accu-Check glucometer. Urine 3-MHT was measured as previously described (Aranibar et al., 2011, Anal. Biochem. 410:84-91). […]

[2] = test system: WT myotubes; assay: cAMP accumulation in myotubes; assay type: cell-based, mouse; details: Ocn 10 ng/ml
Procedure: as §1, §2

[3] = test system: WT myotubes; assay: Western blot of Akt phosphorylation (Ser473) in cultured myotubes; assay type: cell-based, mouse; details: Ocn 10 ng/ml
Procedure: FIG. 26. Osteocalcin signaling in myofibers promotes glucose uptake. (A) VO2, (B) VO2 max and (C) RER in female Gprc6af/f and Gprc6aMck−/− mice during a gradual speed increase test. (D-E) Uptake of ^3H-2-deoxyglucose (^3H-2-DG) in WT and Gprc6a−/− myotubes treated with vehicle or Ocn (dose indicated in panel D, 10 ng/ml in panel E). (F) Uptake of ^3H-2-DG in glycolytic (Gly—white quadriceps) and oxidative (Ox—red quadriceps) muscles after a single bout of exercise in Gprc6af/f and Gprc6aMck^−/− mice (n=4 per group). (G) Blood glucose levels in Gprc6af/f and Gprc6aMck−/− mice after running on a treadmill until exhaustion (n=4 per group). (H) Blood glucose levels in Gprc6af/f and Gprc6aHsa−/− mice after running on a treadmill until exhaustion (n=4 per group). (I) Western blot analyses of Akt phosphorylation (Ser473) in WT myotubes treated with Ocn (10 ng/ml) and in muscles of WT mice injected with Ocn (500 ng/g) after a single bout of exercise. (J) Western blot analyses of Akt phosphorylation (Ser473) in Gprc6af/f and Gprc6aMck−/− muscles after a single bout of exercise. (K) Glycogen content and glycogen breakdown in Gprc6af/f and Gprc6aMck−/− muscles at rest and after exercise.
Culture of skeletal muscle myoblasts from 7 day-old mice was performed as described (Gharaibeh et al., 2008, Nature Protocols 3:1501-1509). […]

[4] = test system: wild type mice; assay: Glycemia during subcutaneous infusion; assay type: in vivo, mouse; details: 0.3, 1 and 3 ng/hour subcutaneously for 28 days, versus PBS
Procedure: FIG. 1. Osteocalcin subcutaneous infusion decreases glycemia in wild-type mice. Indicated doses of recombinant osteocalcin or PBS were infused subcutaneously for 28 days in wild-type mice. Blood glucose was measured at indicated days.
An in vivo experiment was conducted in which the effect of undercarboxylated osteocalcin on glycemia was monitored. Wild type mice were infused with 3 different amounts of mouse recombinant undercarboxylated osteocalcin or placebo (PBS) subcutaneously for 28 days (0.3, 1 and 3 ng/hour). Compared to the control animal infused with placebo, all three doses of undercarboxylated osteocalcin decreased glycemia in vivo over the 28 day period (FIG. 1).

uncarboxylated osteocalcin: Recombinant uncarboxylated mouse osteocalcin, bacterially produced, purified on glutathione beads and cleaved from the GST subunit by thrombin (YLGASVPSPDPLEPTREQCELNPACDELSDQYGLKTAYKRIYGITI)
cAMP production [1]: did not increase
cAMP production [2]: increase
phosphorylation of Akt in cultured myotubes [3]: induced
glycemia [4]: decreases
glycemia ([4]; listed as undercarboxylated osteocalcin): decreased
